Reference: the supplement of paper PMC11208160

Assay: recombinant barcode read abundance after kanamycin selection (control-corrected) (log10(CPM+1)); higher = more efficient recombination; sequences stand for … in AGTGCAGAGAAAATCGGCCAGTTTTCTCTGCCTGCAGTCCGCATGCCGT…AGATTTATGCAGCGGACTGCCTTTCTCCCAAAGTGATAAACCGGACAGTATCATGGACCGGTTTTCCCGGTAATCCGTATTTGCAAGGTTGGTTTCACT; site = the 11-nt target
Procedure, shortened: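 Pooled E. coli screen pairing targets with IS621 bridge RNA target-binding loops. Each oligo (promoter, target, barcode, J23119-driven first 104 bridge RNA bases) was Gibson-cloned into a vector with the remaining 73 bp and T7-inducible recombinase, then co-electroporated with a donor plasmid. Two replicates each were plated on chloramphenicol/ampicillin LB agar (control) or chloramphenicol/ampicillin/kanamycin with 0.1 mM IPTG. Recombination efficiency is recombinant-junction barcode counts as CPM, averaged, control-corrected, reported as log10(CPM+1).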
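Note: IS621 recombinase and bridge RNA in Escherichia coli cells.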

| Sequence | recombinant barcode read abundance (log10) |
| --- | --- |
| CTTTGATCTTGGGTTCTAACCTGTTGCGT (site CATCGATCTAC) | 0.0142 |
| CTTTGATCTTGGGTTCTAACCTGTTGCGT (site CTTTGATCTAC) | 1.29 |
| GAAACAGCTTGGGTTCTAACCTGTTGCCT (site GAAACAGCTAG) | 0.725 |
| GAAACAGCTTGGGTTCTAACCTGTTGCCT (site GACACAGCTAG) | 0.0141 |
| GAAACAGCTTGGGTTCTAACCTGTTGCCT (site GAGACAGCTAG) | 0.281 |
| GAAACAGCTTGGGTTCTAACCTGTTGCCT (site GATACAGCTAG) | 0.158 |
| GAAAGTCCTTGGGTTCTAACCTGTTGCCT (site GAAAATCCTAG) | 0.0602 |
| GAAAGTCCTTGGGTTCTAACCTGTTGCCT (site GAAACTCCTAG) | 0.0877 |
| GAAAGTCCTTGGGTTCTAACCTGTTGCCT (site GAAAGTCCTAG) | 0.917 |
| GAAAGTCCTTGGGTTCTAACCTGTTGCCT (site GAAATTCCTAG) | 0.0822 |
| GAAATACCTTGGGTTCTAACCTGTTGCGG (site AGCTATGCTAG) | 0.131 |
| GAAATACCTTGGGTTCTAACCTGTTGCGG (site GAAATACCTCC) | 1.41 |
| GAACAGCCTTGGGTTCTAACCTGTTGCGT (site ATTGCTACTTG) | 0.278 |
| GAACAGCCTTGGGTTCTAACCTGTTGCGT (site GAACAGCCTAC) | 0.943 |
| GAACCACCTTGGGTTCTAACCTGTTGCCT (site GAACCACCTAG) | 1.75 |
| GAACCACCTTGGGTTCTAACCTGTTGCCT (site TCACCACCTAG) | 0.133 |
| GAACCTACTTGGGTTCTAACCTGTTGCCG (site GAACCTACTCG) | 0.583 |
| GAACCTACTTGGGTTCTAACCTGTTGCCG (site GAGCCTACTAG) | 0.172 |
| GAACCTACTTGGGTTCTAACCTGTTGCGA (site GAACCTACTCC) | 0.0825 |
| GAACCTACTTGGGTTCTAACCTGTTGCGA (site GAACCTACTTC) | 1.87 |
| GAACCTCCTTGGGTTCTAACCTGTTGCAT (site GAACCTCCTAT) | 1.94 |
| GAACCTCCTTGGGTTCTAACCTGTTGCAT (site TGCGTAACTTG) | 0.0548 |

| Sequence | recombinant barcode read abundance (log10) |
| --- | --- |
| GAACGACCTTGGGTTCTAACCTGTTGCTG (site GAACGACCTAA) | 0.0602 |
| GAACGACCTTGGGTTCTAACCTGTTGCTG (site GAACGACCTCA) | 1.16 |
| GAACGATCTTGGGTTCTAACCTGTTGCCT (site GAACCTTCTAG) | 0.148 |
| GAACGATCTTGGGTTCTAACCTGTTGCCT (site GAACGATCTAG) | 0.397 |
| GAACGCTCTTGGGTTCTAACCTGTTGCCA (site AGGTCTACTAA) | 0.0972 |
| GAACGCTCTTGGGTTCTAACCTGTTGCCA (site GAACGCTCTTG) | 0.265 |
| GAACTTGCTTGGGTTCTAACCTGTTGCCT (site GAACTTGCTAG) | 1.24 |
| GAACTTGCTTGGGTTCTAACCTGTTGCCT (site GCCCTTGCTAG) | 0.176 |
| GAAGAGACTTGGGTTCTAACCTGTTGCCT (site GAAAACACTAG) | 0.0941 |
| GAAGAGACTTGGGTTCTAACCTGTTGCCT (site GAAGAGACTAG) | 1.57 |
| GAAGCATCTTGGGTTCTAACCTGTTGCCT (site GAAGCATCTAG) | 1.54 |
| GAAGCATCTTGGGTTCTAACCTGTTGCCT (site GATGCCTCTAG) | 0.123 |
| GAAGGGCCTTGGGTTCTAACCTGTTGCCT (site GAAGAGCCTAG) | 0.202 |
| GAAGGGCCTTGGGTTCTAACCTGTTGCCT (site GAAGCGCCTAG) | 0.225 |
| GAAGGGCCTTGGGTTCTAACCTGTTGCCT (site GAAGGGCCTAG) | 0.723 |
| GAAGGGCCTTGGGTTCTAACCTGTTGCCT (site GAAGTGCCTAG) | 0.0531 |
| GAAGTACCTTGGGTTCTAACCTGTTGCCT (site AAAGTACCTAG) | 0.881 |
| GAAGTACCTTGGGTTCTAACCTGTTGCCT (site CAAGTACCTAG) | 0.275 |
| GAAGTACCTTGGGTTCTAACCTGTTGCCT (site GAAGTACCTAG) | 1.92 |
| GAAGTACCTTGGGTTCTAACCTGTTGCCT (site TAAGTACCTAG) | 0.873 |
| GAAGTCACTTGGGTTCTAACCTGTTGCCT (site GAAGTCACTAG) | 1.99 |
